Results as given in US11505543B2, “4-oxo-3,4-dihydroquinazoline compounds as inhibitors of human immunodeficiency virus replication” (VIIV HEALTHCARE UK (NO.5) LIMITED, priority 2018, dated 2022).

What was measured:
[1] = Compound cytotoxicity, XTT-based colorimetric assay; type: cell-based; settings: human, uninfected MT2 cells, day 4, XTT
In short: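 Run under the antiviral-assay protocol but without virus. Viability was read on day 4 and CC50 values were derived from the readout.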

[2] = tested on: recombinant NL4-3 virus (nef section replaced with Renilla luciferase gene) in MT-2 cells; test: HIV cell culture assay (antiviral activity, luciferase readout); type: cell-based; settings: Renilla, NL43, MT-2 cells infected for 4-5 days with recombinant NL4-3 Renilla luciferase virus, serial dilutions of compound
In short: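 EC50 was derived by median-effect curve fitting of luciferase activity. The signal comes from MT-2 cells infected for 4–5 days with 293T-produced NL4-3 reporter virus, nef partly replaced by Renilla luciferase, in the presence of serially diluted compound.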

Structure (SMILES) | CC50 at 4 day [1] | EC50 [2]
Cn1nc(NS(C)(=O)=O)c2c(Cl)ccc(-n3c([C@H](Cc4cc(F)cc(F)c4)NC(=O)Cn4nc(C(F)F)c5c4C(F)(F)[C@@H]4C[C@H]54)nc4cc(-c5cnccn5)ccc4c3=O)c21 (atropisomer, axis not shown; (aR)) [Example 39, N-((S)-1-(3-(4-chloro-1-methyl-3-(methylsulfonamido)-1H-indazol-7-yl)-4-oxo-7-(pyrazin-2-yl)-3,4-dihydroquinazolin-2-yl)-2-(3,5-difluorophenyl)ethyl)-2-((3bS,4aR)-3-(difluoromethyl)-5,5-difluoro-3b,4,4a,5-tetrahydro-1H-cyclopropa[3,4]cyclopenta[1,2-c]pyrazol-1-yl)acetamide] | > 1000 nM | 0.052 nM
Cc1nccnc1-c1ccc2c(=O)n(-c3ccc(Cl)c4c(NS(=O)(=O)C5CC5)nn(CC(F)F)c34)c([C@H](Cc3cc(F)cc(F)c3)NC(=O)Cn3nc(C(F)F)c4c3C(F)(F)[C@@H]3C[C@H]43)nc2c1 (atropisomer, axis not shown; (aR)) [Example 126, N-((S)-1-(3-(4-chloro-3-(cyclopropanesulfonamido)-1-(2,2-difluoroethyl)-1H-indazol-7-yl)-7-(3-methylpyrazin-2-yl)-4-oxo-3,4-dihydroquinazolin-2-yl)-2-(3,5-difluorophenyl)ethyl)-2-((3bS,4aR)-3-(difluoromethyl)-5,5-difluoro-3b,4,4a,5-tetrahydro-1H-cyclopropa[3,4]cyclopenta[1,2-c]pyrazol-1-yl)acetamide] | > 500 nM | 0.052 nM
Cn1nc(NS(C)(=O)=O)c2c(Cl)ccc(-n3c([C@H](Cc4cc(F)cc(F)c4)NC(=O)Cn4nc(C(F)F)c5c4C(F)(F)[C@@H]4C[C@H]54)nc4cc(-c5cc(F)ccc5CO)ccc4c3=O)c21 [Example 180, N-((S)-1-(3-(4-chloro-1-methyl-3-(methylsulfonamido)-1H-indazol-7-yl)-7-(5-fluoro-2-(hydroxymethyl)phenyl)-4-oxo-3,4-dihydroquinazolin-2-yl)-2-(3,5-difluorophenyl)ethyl)-2-((3bS,4aR)-3-(difluoromethyl)-5,5-difluoro-3b,4,4a,5-tetrahydro-1H-cyclopropa[3,4]cyclopenta[1,2-c]pyrazol-1-yl)acetamide] | > 500 nM | 0.2 nM
Cc1cc(C)nc(-c2ccc3c(=O)n(-c4ccc(Cl)c5c(NS(C)(=O)=O)nn(CC(F)(F)F)c45)c([C@H](Cc4cc(F)cc(F)c4)NC(=O)Cn4nc(C(F)F)c5c4C(F)(F)[C@@H]4C[C@H]54)nc3c2)n1 [Example 164, N-((S)-1-(3-(4-chloro-3-(methylsulfonamido)-1-(2,2,2-trifluoroethyl)-1H-indazol-7-yl)-7-(4,6-dimethylpyrimidin-2-yl)-4-oxo-3,4-dihydroquinazolin-2-yl)-2-(3,5-difluorophenyl)ethyl)-2-((3bS,4aR)-3-(difluoromethyl)-5,5-difluoro-3b,4,4a,5-tetrahydro-1H-cyclopropa[3,4]cyclopenta[1,2-c]pyrazol-1-yl)acetamide] | > 500 nM | 0.096 nM
CC(C)S(=O)(=O)c1ccccc1-c1ccc2c(=O)n(-c3ccc(Cl)c4c(NS(C)(=O)=O)nn(CC(F)F)c34)c([C@H](Cc3cc(F)cc(F)c3)NC(=O)Cn3nc(C(F)F)c4c3C(F)(F)[C@@H]3C[C@H]43)nc2c1 [Example 178, N-((S)-1-(3-(4-chloro-1-(2,2-difluoroethyl)-3-(methylsulfonamido)-1H-indazol-7-yl)-7-(2-(isopropylsulfonyl)phenyl)-4-oxo-3,4-dihydroquinazolin-2-yl)-2-(3,5-difluorophenyl)ethyl)-2-((3bS,4aR)-3-(difluoromethyl)-5,5-difluoro-3b,4,4a,5-tetrahydro-1H-cyclopropa[3,4]cyclopenta[1,2-c]pyrazol-1-yl)acetamide] | > 500 nM | 0.065 nM
